Measurements from patent US8153686B2 (Theravance, Inc., priority 2008, dated 2012).
pKi: −log10 of the molar value. Like-named read-outs stand apart in the source and are kept apart here.

Key:
human mu opioid receptor [1] = target: T1, human mu opioid receptor (Homo sapiens, UniProt P35372); assay: Human mu [35S]GTPγS nucleotide exchange assay (agonist mediated activation); assay type: biochemical; conditions: read-out: intrinsic activity (IA)
[2] = tested on: loperamide-induced delayed gastric emptying; assay: Rat gastric emptying assay (reversal of loperamide-induced delayed gastric emptying); assay type: in vivo; conditions: administered orally, loperamide 1 mg/kg s.c., gastric emptying model
Description: Assay 3: Rat Model of In Vivo Efficacy In this assay the efficacy of test compounds was evaluated in a model of gastrointestinal transit, which evaluates peripheral activity. This study was approved by the Institutional Animal Care and Use Committee at […]. and conformed to the Guide for the Care and Use of Laboratory Animals published by the National Academy of Sciences (©1996). a. Rat Gastric Emptying Assay Test compounds were evaluated in the rat gastric emptying assay to determine their ability to reverse loperamide-induced delayed gastric emptying. Rats were fasted up overnight prior to administration of test compounds or vehicle by intravenous, subcutaneous, intramuscular or oral routes of administration at doses ranging from 0.001 to about 30 milligrams/kilogram (mg/kg). The administration of test compound was followed by subcutaneous administration of loperamide at a dose of 1 mg/kg or vehicle. Five minutes post loperamide or vehicle administration, a non-nutritive, non-absorbable charcoal meal was administered via oral gavage and animals were allowed free access to water for the sixty minute duration of the experiment. Animals were then euthanized via carbon dioxide asphyxiation followed by thoracotomy and the stomach was carefully excised. The stomach was ligated at the lower esophageal sphincter and the pyloric sphincter to prevent additional emptying during tissue removal. Gastric weight was then determined after removal of the ligatures. b. Data Analysis and Results Data was analyzed using the GraphPad Prism Software package (GraphPad Software, Inc., San Diego, Calif.). Percent reversal curves were constructed by non-linear regression analysis using the sigmoidal dose response (variable slope) model and best-fit ID50 values were calculated. Curve minima and maxima were fixed to loperamide control values (indicating 0% reversal) and vehicle controls (indicating 100% reversal), respectively. Results are expressed as ID50, the dose required for 50% reversal of the effects of loperamide, in milligrams per kilogram.

human mu opioid receptor [3] = target: T1, human mu opioid receptor; assay: Radioligand binding assay, human mu opioid receptor; conditions: for Ki: displacement of [3H]-Diprenorphine 0.5 nM, CHO-K1 cell membranes, read-out: pKi at the human mu opioid receptor (converted)
[4] = bound [35S]GTPγS relative to DAMGO (IA=100), CHO-K1 membranes expressing human mu opioid receptor

T1 sequence (P35372 whole entry): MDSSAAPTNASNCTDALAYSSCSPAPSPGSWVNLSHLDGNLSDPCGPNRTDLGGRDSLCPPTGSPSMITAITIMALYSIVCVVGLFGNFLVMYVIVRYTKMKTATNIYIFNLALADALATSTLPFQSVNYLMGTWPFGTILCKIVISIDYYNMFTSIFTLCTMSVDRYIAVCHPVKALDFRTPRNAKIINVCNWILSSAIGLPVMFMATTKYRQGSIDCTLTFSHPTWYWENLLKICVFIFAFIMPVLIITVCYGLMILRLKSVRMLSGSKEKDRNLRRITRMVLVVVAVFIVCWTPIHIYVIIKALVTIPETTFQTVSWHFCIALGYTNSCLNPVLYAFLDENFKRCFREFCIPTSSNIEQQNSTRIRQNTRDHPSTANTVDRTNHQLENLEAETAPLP

Row | SMILES | Emax (human mu opioid receptor [1]; [4]) [%] | ID50, dose required for 50% reversal of the effects of loperamide [2] [mg/kg] | Ki (human mu opioid receptor [3]) [nM] | Emax (human mu opioid receptor [1]) [%] | pKi (human mu opioid receptor [3])
1 | CO[C@@H]1Cc2ccc(C(N)=O)cc2C(C)(C)[C@H]1NCCCNC(=O)C1CCCCC1 (relative stereo) [Example 1, trans-7-[3-(Cyclohexanecarbonyl-amino)-propylamino]-6-methoxy-8,8-dimethyl-5,6,7,8-tetrahydro-naphthalene-2-carboxylic acid amide] | 10 | 0.5 | 0.158 | – | –
2 | CO[C@@H]1Cc2ccc(C(N)=O)cc2C(C)(C)[C@H]1NCCCNC(=O)CC(C)(C)C (relative stereo) [Example 11, trans-7-[3-(3,3-Dimethyl-butyrylamino)-propylamino]-6-methoxy-8,8-dimethyl-5,6,7,8-tetrahydro-naphthalene-2-carboxylic acid amide] | 1 | 0.4 | 0.2 | – | –
3 | CO[C@@H]1Cc2ccc(C(N)=O)cc2C(C)(C)[C@H]1NCCCNC(=O)c1ccccc1 (relative stereo) [Example 16, trans-7-(3-Benzoylamino-propylamino)-6-methoxy-8,8-dimethyl-5,6,7,8-tetrahydro-naphthalene-2-carboxylic acid amide] | -2 | 0.63 | 0.126 | – | –
4 | COC1Cc2ccc(C(N)=O)cc2C(C)(C)C1NC[C@H](N)Cc1ccccc1 (single isomer, unassigned) [Example 8] | – | – | – | -7 | 8.80
5 | CO[C@H]1Cc2ccc(C(N)=O)cc2C(C)(C)[C@@H]1NCCCNC(=O)CC(C)(C)C [Example 12, (6S,7S)-7-[3-(3,3-Dimethyl-butyrylamino)-propylamino]-6-methoxy-8,8-dimethyl-5,6,7,8-tetrahydro-naphthalene-2-carboxylic acid amide] | – | 0.11 | 0.0631 | – | –
